Assay results as given in paper PMC12040169 (PLOS Biology, 2025).

test: in vitro; settings: human, hela cells, % viability

Compared with `O=C(O)CSc1ncnc2ccccc12` [CBK262069], `O=C(O)c1cc(-c2ccccn2)nc2ccccc12` [CBK262147K] is higher in viability at 28.5 h, 10 µM: 94.4% for the first, 108% for the second.

Going from `Cc1cc(C)nc(SCc2c(C)c(C)c(CSc3nc(C)cc(C)n3)c(C)c2C)n1` [CBK262070] to `CCc1cc2c(=O)c(-c3nc4ccccc4n3C)c(C)oc2c(CN2CCOCC2)c1O` [CBK262124], the viability at 28.5 h, 10 µM falls from 109% to 94.1%.

Going from `CCC1CCCCN1S(=O)(=O)c1cccc2c(S(=O)(=O)N3CCCCC3CC)cccc12` (stereo not shown) [CBK262073] to `Cc1ccc(S(=O)(=O)c2cccc(S(=O)(=O)N3CCCCC3)c2)cc1S(=O)(=O)N1CCCCC1` [CBK262207], the viability at 28.5 h, 10 µM rises from 92.8% to 105%.

Compared with `C/C(=N/O)c1ccc(OCCCOc2ccc(/C(C)=N/O)cc2)cc1` [CBK262075], `C/C(=N\NC(=O)CN(c1ccc(C)cc1)S(=O)(=O)c1ccccc1)c1ccc(Cl)cc1` [CBK262229] is lower in viability at 28.5 h, 10 µM: 95.2% for the first, 93.3% for the second.

Going from `O=C(NO)c1nc[nH]c1C(=O)NO` [CBK262077] to `CC(NC(=O)COc1ccc(Br)cc1)C(=O)O` (stereo not shown) [CBK262083], the viability at 28.5 h, 10 µM falls from 97.7% to 87.4%.

Compared with `O=C1CC(N2CCN(C/C=C/c3ccccc3)CC2)C(=O)N1CCc1ccccc1` (stereo not shown) [CBK262082], `Cc1ccc(C(CC(=O)N2CCN(Cc3ccccc3)CC2)c2ccccc2)c(O)c1C` (stereo not shown) [CBK262214] is higher in viability at 28.5 h, 10 µM: 83.6% for the first, 100% for the second.

Compared with `Cn1ccnc1C(O)(c1ccccc1)c1nccn1C` [CBK262084], `O=C(O)c1cc(-c2cccnc2)nc2ccccc12` [CBK262141K] is higher in viability at 28.5 h, 10 µM: 97.6% for the first, 103% for the second.

Going from `O=C(Nc1ccc(Cc2ccc(NC(=O)c3ccc(Br)cc3)c(O)c2)cc1O)c1ccc(Br)cc1` [CBK262086] to `NS(=O)(=O)c1ccc(NC(=O)/C(=C/c2ccc(Br)cc2)NC(=O)c2ccccc2)cc1` [CBK262109], the viability at 28.5 h, 10 µM rises from 102% to 105%.

Going from `CCC(Oc1ccccc1)C(=O)Nc1sc2c(c1C#N)CCCC2` (stereo not shown) [CBK262091] to `CCC(Oc1ccccc1)C(=O)Nc1cc(OC)c(Cl)cc1OC` (stereo not shown) [CBK262235], the viability at 28.5 h, 10 µM rises from 87.5% to 112%.

Going from `O=C(COc1ccc([N+](=O)[O-])cc1)N/N=C/c1cc(Br)cc(Br)c1O` [CBK262094] to `O=C(COc1ccc(I)cc1)N/N=C/c1cccc([N+](=O)[O-])c1` [CBK262211], the viability at 28.5 h, 10 µM falls from 98.3% to 95.2%.

Compared with `COc1cccc(NC(=O)C(=O)NCCCO)c1` [CBK262095], `COc1cccc(/C=N/NC(=O)C(=O)NCc2ccccn2)c1O` [CBK262097] is higher in viability at 28.5 h, 10 µM: 89.6% for the first, 93.5% for the second.

Going from `O=C(Nc1cccnc1)c1cc(S(=O)(=O)N2CCOCC2)ccc1Cl` [CBK262099] to `COc1ccc(N(CC(=O)Nc2cccnc2)S(=O)(=O)c2ccccc2)cc1` [CBK262236], the viability at 28.5 h, 10 µM rises from 84.7% to 91.6%.

First: O=C(NN1C(=O)c2ccccc2C1=O)c1cc(C(=O)NN2C(=O)c3ccccc3C2=O)cc(N2C(=O)c3ccccc3C2=O)c1 [CBK262100]
Second: CC(=O)Nc1ccc(N2C(=O)c3ccc(S(=O)(=O)c4ccc5c(c4)C(=O)N(c4ccc(NC(C)=O)cc4)C5=O)cc3C2=O)cc1 [CBK262105]
The viability at 28.5 h, 10 µM of the first is higher: 88.2% for the first, 77.8% for the second.

Compared with `Cc1ccc(Nc2nc(N/N=C/c3cccc4ccccc34)nc(N3CCC(Cc4ccccc4)CC3)n2)cc1` [CBK262101], `CN(CCN(C)/N=C/c1cccc2ccccc12)/N=C/c1cccc2ccccc12` [CBK262153] is higher in viability at 28.5 h, 10 µM: 94.7% for the first, 107% for the second.

Going from `O=C(c1ccco1)N1CCN(S(=O)(=O)c2ccc3c(c2)C(=NO)c2cc(S(=O)(=O)N4CCN(C(=O)c5ccco5)CC4)ccc2-3)CC1` [CBK262103] to `O=C(O)CN1C(=O)c2ccc(C(=O)c3ccc4c(c3)C(=O)N(CC(=O)O)C4=O)cc2C1=O` [CBK262166], the viability at 28.5 h, 10 µM falls from 104% to 82.3%.

First: O=C(CCn1c2ccccc2c2ccccc21)NNC(=S)Nc1ccccc1 [CBK262106]
Second: O=C(NNc1nc(-c2ccccc2)cc(-c2ccccc2)n1)Nc1ccccc1 [CBK262223]
The viability at 28.5 h, 10 µM of the first is higher: 94.6% for the first, 91.3% for the second.

Going from `CC(=O)Nc1ccc(S(=O)(=O)N2CCCC(CO)C2)cc1` (stereo not shown) [CBK262108] to `CCOC(=O)Nc1ccc(S(=O)(=O)Nn2cnnc2)cc1` [CBK262138], the viability at 28.5 h, 10 µM rises from 98.6% to 105%.

Going from `COc1cc(/C=N/NC(=O)c2ccccn2)ccc1OC(=O)c1cccc2ccccc12` [CBK262110] to `O=C(Oc1cccc(/C=N/NC(=O)c2ccccn2)c1)c1cccc(Br)c1` [CBK262115], the viability at 28.5 h, 10 µM falls from 94.4% to 90.5%.

First: CCOc1ccc(/N=N\c2ccc(O)c(/C=N\Nc3ccc([N+](=O)[O-])cc3)c2)cc1 [CBK262111]
Second: O=C(N/N=C/c1ccc(OC(=O)c2ccc([N+](=O)[O-])cc2)cc1)c1cccnc1 [CBK262146]
The viability at 28.5 h, 10 µM of the first is lower: 97.7% for the first, 101% for the second.

Compared with `CN(C)CCCNC(=O)c1ccc([N+](=O)[O-])o1` [CBK262118], `O=C(Cc1ccc([N+](=O)[O-])cc1)N/N=C/c1ccc(O)cc1` [CBK262152] is lower in viability at 28.5 h, 10 µM: 92.8% for the first, 84.5% for the second.

First: COc1ccc(/C=N/NC(=O)Cn2nnnc2N)cc1 [CBK262122]
Second: Cc1ccc(COc2ccc(/C=N/NC(=O)CN3CCCCC3)cc2)cc1 [CBK262227]
The viability at 28.5 h, 10 µM of the first is lower: 84.9% for the first, 103% for the second.

Going from `Nc1nnc(CC(=O)N/N=C/c2cc(Br)c(O)c(Br)c2O)s1` [CBK262131] to `COc1cc(/C=N/NC(=O)c2cccnc2)cc([N+](=O)[O-])c1O` [CBK262233], the viability at 28.5 h, 10 µM falls from 96% to 86.4%.

First: O=C(NCc1ccco1)c1ccc2c(c1)OCO2 [CBK262133]
Second: c1ccc2c(CNCc3ccc4c(c3)OCO4)c[nH]c2c1 [CBK262159]
The viability at 28.5 h, 10 µM of the first is higher: 94.4% for the first, 89.5% for the second.

Compared with `NC(=O)CCN(CCC(N)=O)S(=O)(=O)c1ccc(N)cc1` [CBK262134], `O=C(Nc1ccncc1)OCCNC(=O)c1ccncc1` [CBK262150] is lower in viability at 28.5 h, 10 µM: 118% for the first, 102% for the second.

First: O=C(O)c1cc(NC(=O)c2ccccc2[N+](=O)[O-])cc(C(=O)O)c1 [CBK262135]
Second: COc1ccccc1NC(=O)C(=O)N/N=C/c1ccc(C(=O)O)cc1 [CBK262148]
The viability at 28.5 h, 10 µM of the first is lower: 81.1% for the first, 93.8% for the second.

Compared with `C(=N\c1ccc(Cc2ccncc2)cc1)/c1ccc(/C=N/c2ccc(Cc3ccncc3)cc2)cc1` [CBK262137], `O=C(CC(Nc1ccc2ccccc2c1)c1ccncc1)c1ccc(Br)cc1` (stereo not shown) [CBK262209] is higher in viability at 28.5 h, 10 µM: 97% for the first, 98.7% for the second.

First: COc1ccc(C(O)Cc2nc3ccccc3n2Cc2ccc(Cl)cc2)cc1 (stereo not shown) [CBK262143]
Second: OCCn1c(-c2ccc(Br)cc2)cn2c3ccccc3nc12 [CBK262167]
The viability at 28.5 h, 10 µM of the first is lower: 86.2% for the first, 95.2% for the second.

Going from `O=C(N/N=C/c1ccc(O)c(I)c1)c1ccncc1` [CBK262144] to `COc1ccc(-c2ccc(/C=N/NC(=O)c3ccncc3)o2)c([N+](=O)[O-])c1` [CBK262156], the viability at 28.5 h, 10 µM rises from 86.2% to 97.3%.

Going from `Cc1cc(C=O)c(O)c(/C=N/CC/N=C/c2cc(C)cc(C=O)c2O)c1` [CBK262149] to `COc1cc(/C=N/NC(=O)c2cccc([N+](=O)[O-])c2)cc(OC)c1O` [CBK262172], the viability at 28.5 h, 10 µM falls from 95.6% to 83.1%.

Compared with `NC(=O)c1c(NC(=O)COc2ccc(Cl)cc2)sc2c1CCC2` [CBK262163], `Cc1cccnc1NC(=O)COc1ccc(Cl)cc1` [CBK262175] is higher in viability at 28.5 h, 10 µM: 91% for the first, 106% for the second.

Going from `COc1ccccc1CNCc1ccccc1OC` [CBK262168] to `Cc1ccc(/C=N/NC(=O)C(C)Oc2ccccc2Br)o1` (stereo not shown) [CBK262226], the viability at 28.5 h, 10 µM falls from 106% to 103%.

First: O=C(N/N=C/c1cc2c(cc1Cl)OCO2)C(O)c1ccccc1 (stereo not shown) [CBK262177]
Second: O=C(N/N=C/c1ccc(O)cc1)c1c[nH]c2ccccc12 [CBK262193]
The viability at 28.5 h, 10 µM of the first is higher: 112% for the first, 91.4% for the second.

Compared with `O=C(N/N=C/c1ccc(OC(=O)c2cccs2)cc1)c1ccccn1` [CBK262178], `O=C(COc1ccc(-c2ccccc2)cc1)N/N=C/c1ccncc1` [CBK262210] is lower in viability at 28.5 h, 10 µM: 107% for the first, 93.2% for the second.

Going from `c1ccc(-c2n[nH]c(-c3ccncc3)c2-c2nc3ccccc3[nH]2)cc1` [CBK262180] to `O=C(O)/C(=N\c1cccc2ccccc12)c1ccccc1` [CBK262224], the viability at 28.5 h, 10 µM falls from 88% to 75.7%.

Compared with `COC(=O)Nc1ccc(S(=O)(=O)Oc2ccc(C)cc2-n2nc3ccccc3n2)cc1` [CBK262183], `Cc1ccc(S(=O)(=O)NCC(Oc2ccc([N+](=O)[O-])cc2)c2ccccc2)cc1` (stereo not shown) [CBK262208] is higher in viability at 28.5 h, 10 µM: 89.3% for the first, 101% for the second.

Compared with `COc1cc(CNC2CCCCCC2)c([N+](=O)[O-])cc1OC` [CBK262194], `O=[N+]([O-])c1cc(/C=N/Nc2nnn[nH]2)ccc1N1CCOCC1` [CBK262199] is higher in viability at 28.5 h, 10 µM: 96.4% for the first, 99.7% for the second.

Going from `O=C1c2ccc(Oc3ccc(Oc4ccc5c(c4)C(=O)N(c4cccnc4)C5=O)cc3)cc2C(=O)N1c1cccnc1` [CBK262195] to `Nc1nc2ccccc2n1/N=C/c1ccc([N+](=O)[O-])cc1` [CBK262239], the viability at 28.5 h, 10 µM falls from 95.7% to 88%.

First: COc1c(O)ccc(/C=N/NC(=O)c2cccnc2)c1[N+](=O)[O-] [CBK262197]
Second: COc1ccc(/C=C/C(C)=C\C(=O)O)c(OC)c1 [CBK262237N]
The viability at 28.5 h, 10 µM of the first is higher: 112% for the first, 94.8% for the second.

Going from `CC(C)(C)c1cc(C(=O)NCC(=O)NCC(=O)O)cc(C(C)(C)C)c1` [CBK262200] to `O=C(COc1ccccc1O)NCCN1CCOCC1` [CBK262243C], the viability at 28.5 h, 10 µM falls from 96% to 84%.

First: O=C(c1sc2ccccc2c1Cl)n1cnc2ccccc21 [CBK262216]
Second: Cc1cc(N(C)CCc2ccccc2)nc2cc(Cl)ccc12 [CBK262221]
The viability at 28.5 h, 10 µM of the first is higher: 101% for the first, 93.9% for the second.

Compared with `Cc1[nH]c2ccccc2c1/C=C1/SC(=S)N(CC(=O)O)C1=O` [CBK262220], `O=C1CCC(=O)N1CC(O)Cn1c2ccc(Cl)cc2c2cc(Cl)ccc21` (stereo not shown) [CBK262222] is lower in viability at 28.5 h, 10 µM: 118% for the first, 90.5% for the second.

For `Cc1cc(OCCCNCCO)ccc1Cl` [CBK262230], the viability at 28.5 h, 10 µM was 95.4%.

same assay, conditions: human, hela cells, % viability, bulk resorufin, single well

First: Cc1ccc(C=C2C(=O)NC(=O)NC2=O)cc1[N+](=O)[O-] [CBK262102]
Second: O=C(O)c1cc(N2C(=O)c3cccc4c([N+](=O)[O-])ccc(c34)C2=O)cc(N2C(=O)c3cccc4c([N+](=O)[O-])ccc(c34)C2=O)c1 [CBK262119]
The viability at 28.5 h, 10 µM of the first is higher: 97.9% for the first, 91.8% for the second.
